Measurements taken from patent US20230065740A1, “CYCLIN-DEPENDENT KINASE INHIBITORS” (SPV THERAPEUTICS INC., priority 2018, published 2023).
pIC50: −log10 of the molar value.

What was measured:
CDK6-CYCLIND3 = biological target: T1, CDK6-CYCLIND3 (Homo sapiens, UniProt Q00534); test: Microfluidic LabChip kinase inhibition assay, CDK6-CyclinD3; format: biochemical; settings: Table 2; 300 μM ATP, 2 nM enzyme; read-out: CDK6 IC50
T1 construct: purchased Carna

CDK4-CYCLIND1 = CDK4-CYCLIND1 (Homo sapiens, UniProt P11802); test: Microfluidic LabChip kinase inhibition assay, CDK4-CyclinD1; settings: CDK4 IC50 (μM), Table 2; 200 μM ATP, 1 nM enzyme
CDK4-CYCLIND1, sequence (P11802 whole entry): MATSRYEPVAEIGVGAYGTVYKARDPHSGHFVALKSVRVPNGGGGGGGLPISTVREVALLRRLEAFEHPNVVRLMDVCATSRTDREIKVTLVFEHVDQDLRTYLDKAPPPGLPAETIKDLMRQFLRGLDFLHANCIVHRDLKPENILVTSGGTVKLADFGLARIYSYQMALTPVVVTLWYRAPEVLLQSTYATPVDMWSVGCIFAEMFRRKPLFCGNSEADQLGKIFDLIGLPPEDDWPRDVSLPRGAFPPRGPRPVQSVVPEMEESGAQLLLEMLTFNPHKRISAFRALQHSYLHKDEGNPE
CDK4-CYCLIND1, sequence (P24385 whole entry partner): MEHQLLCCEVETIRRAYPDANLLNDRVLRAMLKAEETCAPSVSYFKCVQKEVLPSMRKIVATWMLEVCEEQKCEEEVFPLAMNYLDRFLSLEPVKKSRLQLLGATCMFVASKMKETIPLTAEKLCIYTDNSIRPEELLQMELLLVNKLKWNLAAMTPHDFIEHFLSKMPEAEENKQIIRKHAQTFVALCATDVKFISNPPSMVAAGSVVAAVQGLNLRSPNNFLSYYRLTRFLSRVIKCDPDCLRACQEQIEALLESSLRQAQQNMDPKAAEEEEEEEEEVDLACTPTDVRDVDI
Experimental: Inhibition assays were performed using microfluidic LabChip 300 Drug Discovery System from Caliper Life Sciences. […] The assay has a total volume of 10 μL consisting of 5 μL of enzyme and buffer and 5 μL of substrate and buffer. The test compounds were diluted in 100% dimethylsulfoxide (DMSO) using 3-fold dilution steps. […] Compounds were tested in a single well for each dilution and the final concentration of DMSO was maintained at 1%.
The assay buffer contained 100 mM HEPES, pH 7.5, 0.01% Triton X-100, 0.1% bovine serum albumin (BSA), 5 mM MgCl2; 1 mM dithiothreitol (DTT), 10 μM sodium orthovanadate, and 10 μM β-glycerophosphate.
The assay was conducted by adding 5 μL of enzyme, adenosine triphosphate (ATP) and buffer to an assay plate. A 100 nL aliquot of the diluted compounds were added to the plate. The assay was initiated by the addition of 5 μL of phosphoenolpyruvate substrate (PEP) in buffer. […] The reaction was terminated by the addition of EDTA. The plates were analyzed using a Caliper LabChip 3000.

T1 sequence (Q00534 whole entry): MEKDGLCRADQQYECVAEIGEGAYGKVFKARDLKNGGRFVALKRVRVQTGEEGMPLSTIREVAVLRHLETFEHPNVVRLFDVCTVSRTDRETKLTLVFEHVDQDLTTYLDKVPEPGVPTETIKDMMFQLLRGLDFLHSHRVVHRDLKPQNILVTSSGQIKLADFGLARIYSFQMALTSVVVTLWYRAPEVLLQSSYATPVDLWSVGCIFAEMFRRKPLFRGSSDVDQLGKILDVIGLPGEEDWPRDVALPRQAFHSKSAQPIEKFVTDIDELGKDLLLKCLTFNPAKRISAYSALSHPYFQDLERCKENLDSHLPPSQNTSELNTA
T1 sequence (P30281 whole entry partner): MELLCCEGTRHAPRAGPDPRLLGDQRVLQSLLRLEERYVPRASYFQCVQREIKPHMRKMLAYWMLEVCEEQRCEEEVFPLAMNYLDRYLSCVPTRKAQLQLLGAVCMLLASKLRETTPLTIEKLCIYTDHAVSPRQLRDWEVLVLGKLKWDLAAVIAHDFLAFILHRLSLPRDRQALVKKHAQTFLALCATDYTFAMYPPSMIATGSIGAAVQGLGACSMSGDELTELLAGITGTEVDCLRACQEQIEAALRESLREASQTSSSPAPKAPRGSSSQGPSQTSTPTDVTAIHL

Row | Compound | pIC50 (CDK6-CYCLIND3) | IC50 (CDK4-CYCLIND1) [µM]
1 | CC(C)N1CCN(c2ccc(Nc3ncc4c(n3)N(C3CCCC3)C3(CC(=O)N(C)C3=O)C4)cc2F)CC1 (stereo not drawn) [Compound C73, 7′-cyclopentyl-2′-((3-fluoro-4-(4-isopropylpiperazin-1-yl)phenyl)amino)-1-methyl-5′,7′-dihydrospiro[pyrrolidine-3,6′-pyrrolo[2,3-d]pyrimidine]-2,5-dione] | 5.01 | 1.94
2 | CN1CCN(c2ccc(Nc3ncc4c(n3)N(C3CCCC3)C3(CC(=O)NC3=O)C4)nc2)CC1 (stereo not drawn) [Compound C75, 7′-cyclopentyl-2′-((5-(4-methylpiperazin-1-yl)pyridin-2-yl)amino)-5′,7′-dihydrospiro[pyrrolidine-3,6′-pyrrolo[2,3-d]pyrimidine]-2,5-dione] | 7.46 | 0.0203
3 | CC(C)N1CCN(c2ccc(Nc3ncc4c(n3)N(C3CCCC3)C3(CC(=O)NC3=O)C4)nc2)CC1 (stereo not drawn) [Compound C76, 7′-cyclopentyl-2′-((5-(4-isopropylpiperazin-1-yl)pyridin-2-yl)amino)-5′,7′-dihydrospiro[pyrrolidine-3,6′-pyrrolo[2,3-d]pyrimidine]-2,5-dione] | 6.86 | 0.103
4 | CN1CCN(c2ccc(Nc3ncc4c(n3)N(C3CCCC3)C3(CC(=O)NC3=O)C4)cc2)CC1 (stereo not drawn) [Compound C78, 7-cyclopentyl-2′-((4(4-methylpiperazin-1-yl)phenyl)amino)-5′,7′-dihydrospiro[pyrrolidine-3,6′-pyrrolo[2,3-d]pyrimidine]-2,5-dione] | 6.46 | 0.0667
5 | CC(C)N1CCN(c2ccc(Nc3ncc4c(n3)N(C3CCCC3)C3(CC(=O)NC3=O)C4)cc2F)CC1 (stereo not drawn) [Compound C82, 7′-cyclopentyl-2′-((3-fluoro-4-(4-isopropylpiperazin-1-yl)phenyl)amino)-5′,7′-dihydrospiro[pyrrolidine-3,6′-pyrrolo[2,3-d]pyrimidine]-2,5-dione] | 6.91 | 0.0222
6 | CN1CCN(c2ccc(Nc3ncc4c(n3)N(C3CCCC3)C3(CC(=O)NC3=O)C4)cn2)CC1 (stereo not drawn) [Compound C84, 7′-cyclopentyl-2′-((6-(4-methylpiperazin-1-yl)pyridin-3-yl)amino)-5′,7′-dihydrospiro[pyrrolidine-3,6′-pyrrolo[2,3-d]pyrimidine]-2,5-dione] | 6.76 | 0.0399
7 | O=C1CC2(Cc3cnc(Nc4ccc(N5CCOCC5)c(F)c4)nc3N2C2CCCC2)C(=O)N1 (stereo not drawn) [Compound C86, 7′-cyclopentyl-2′-((3-fluoro-4-morpholinophenyl)amino)-5′,7′-dihydrospiro[pyrrolidine-3,6′-pyrrolo[2,3-d]pyrimidine]-2,5-dione] | 6.34 | 0.101
8 | O=C1CC2(Cc3cnc(Nc4ccc(OCCN5CCCC5)nc4)nc3N2C2CCCC2)C(=O)N1 (stereo not drawn) [Compound C90, 7′-cyclopentyl-2′-((6-(2-(pyrrolidin-1-yl)ethoxy)pyridin-3-yl)amino)-5′,7′-dihydrospiro[pyrrolidine-3,6′-pyrrolo[2,3-d]pyrimidine]-2,5-dione] | 6.59 | 0.072
9 | CN(C)CCOc1ccc(Nc2ncc3c(n2)N(C2CCCC2)C2(CC(=O)NC2=O)C3)nc1 (stereo not drawn) [Compound C92, 7′-cyclopentyl-2′-((5-(2-(dimethylamino)ethoxy)pyridin-2-yl)amino)-5′,7′-dihydrospiro[pyrrolidine-3,6′-pyrrolo[2,3-d]pyrimidine]-2,5-dione] | 7.02 | 0.0831
10 | O=C1CC2(Cc3cnc(Nc4ccc(C5=CCNCC5)cn4)nc3N2C2CCCC2)C(=O)N1 (stereo not drawn) [Compound C93, 7′-cyclopentyl-2′-((1′,2′,3′,6′-tetrahydro-[3,4′-bipyridin]-6-yl)amino)-5′,7′-dihydrospiro[pyrrolidine-3,6′-pyrrolo[2,3-d]pyrimidine]-2,5-dione] | 4.50 | 6.84
11 | CN1CCN(c2ccc(Nc3ncc4c(n3)N(C3CCCC3)C(=O)C43CCNC3=O)nc2)CC1 (stereo not drawn) [Compound C100, 7′-cyclopentyl-2′-((5-(4-methylpiperazin-1-yl)pyridin-2-yl)amino)spiro[pyrrolidine-3,5′-pyrrolo[2,3-d]pyrimidine]-2,6′(7′H)-dione] | 4.48 | 13.7
12 | CN1CCN(c2ccc(Nc3ncc4c(n3)N(C3CCCC3)C(=O)C43CCNC3=O)cc2)CC1 (stereo not drawn) [Compound C101, 7′-cyclopentyl-2′-((4-(4-methylpiperazin-1-yl)phenyl)amino)spiro[pyrrolidine-3,5′-pyrrolo[2,3-d]pyrimidine]-2,6′(7′H)-dione] | 4.36 | 21

Second part, the molecule after the results:

Row | pIC50 (CDK6-CYCLIND3) | IC50 (CDK4-CYCLIND1) [µM] | Compound
13 | 4.07 | 22.7 | O=C1CC2(Cc3cnc(Nc4ccc(N5CCNCC5)cn4)nc3N2C2CCCC2)C(=O)N1 (stereo not drawn) [Compound C74, 7′-cyclopentyl-2′-((5-(piperazin-1-yl)pyridin-2-yl)amino)-5′,7′-dihydrospiro[pyrrolidine-3,6′-pyrrolo[2,3-d]pyrimidine]-2,5-dione]
14 | 6.88 | 0.0251 | O=C1CC2(Cc3cnc(Nc4ccc(N5CCNCC5)cc4)nc3N2C2CCCC2)C(=O)N1 (stereo not drawn) [Compound C77, 7′-cyclopentyl-2′-((4-(piperazin-1-yl)phenyl)amino)-5′,7′-dihydrospiro[pyrrolidine-3,6′-pyrrolo[2,3-d]pyrimidine]-2,5-dione]
15 | 6.89 | 0.021 | CC(C)N1CCN(c2ccc(Nc3ncc4c(n3)N(C3CCCC3)C3(CC(=O)NC3=O)C4)cc2)CC1 (stereo not drawn) [Compound C79, 7′-cyclopentyl-2′-((4-(4-isopropylpiperazin-1-yl)phenyl)amino)-5′,7′-dihydrospiro[pyrrolidine-3,6′-pyrrolo[2,3-d]pyrimidine]-2,5-dione]
16 | 7.10 | 0.0134 | O=C1CC2(Cc3cnc(Nc4ccc(N5CCNCC5)c(F)c4)nc3N2C2CCCC2)C(=O)N1 (stereo not drawn) [Compound C80, 7′-cyclopentyl-2′-((3-fluoro-4-(piperazin-1-yl)phenyl)amino)-5′,7′-dihydrospiro[pyrrolidine-3,6′-pyrrolo[2,3-d]pyrimidine]-2,5-dione]
17 | 7.13 | 0.0162 | CN1CCN(c2ccc(Nc3ncc4c(n3)N(C3CCCC3)C3(CC(=O)NC3=O)C4)cc2F)CC1 (stereo not drawn) [Compound C81, 7′-cyclopentyl-2′-((3-fluoro-4-(4-methylpiperazin-1-yl)phenyl)amino)-5′,7′-dihydrospiro[pyrrolidine-3,6′-pyrrolo[2,3-d]pyrimidine]-2,5-dione]
18 | 6.77 | 0.0516 | O=C1CC2(Cc3cnc(Nc4ccc(N5CCNCC5)nc4)nc3N2C2CCCC2)C(=O)N1 (stereo not drawn) [Compound C83, 7′-cyclopentyl-2′-((6-(piperazin-1-yl)pyridin-3-yl)amino)-5′,7′-dihydrospiro[pyrrolidine-3,6′-pyrrolo[2,3-d]pyrimidine]-2,5-dione]
19 | 6.67 | 0.0489 | CC(C)N1CCN(c2ccc(Nc3ncc4c(n3)N(C3CCCC3)C3(CC(=O)NC3=O)C4)cn2)CC1 (stereo not drawn) [Compound C85, 7′-cyclopentyl-2′-((6-(4-isopropylpiperazin-1-yl)pyridin-3-yl)amino)-5′,7′-dihydrospiro[pyrrolidine-3,6′-pyrrolo[2,3-d]pyrimidine]-2,5-dione]
20 | 4.11 | 14.9 | CN1CCN(c2ccc(Nc3ncc4c(n3)N(C3CCCC3)C3(CC(=O)NC3=O)C4)c(F)c2)CC1 (stereo not drawn) [Compound C87, 7′-cyclopentyl-2′-((2-fluoro-4-(4-methylpiperazin-1-yl)phenyl)amino)-5′,7′-dihydrospiro[pyrrolidine-3,6′-pyrrolo[2,3-d]pyrimidine]-2,5-dione]
21 | 6.44 | 0.097 | CN(C)CCOc1ccc(Nc2ncc3c(n2)N(C2CCCC2)C2(CC(=O)NC2=O)C3)cn1 (stereo not drawn) [Compound C88, 7′-cyclopentyl-2′-((6-(2-(dimethylamino)ethoxy)pyridin-3-yl)amino)-5′,7′-dihydrospiro[pyrrolidine-3,6′-pyrrolo[2,3-d]pyrimidine]-2,5-dione]
22 | 6.25 | 0.143 | CN(C)CCOc1ccc(Nc2ncc3c(n2)N(C2CCCC2)C2(CC(=O)NC2=O)C3)cc1 (stereo not drawn) [Compound C89, 7′-cyclopentyl-2′-((4-(2-(dimethylamino)ethoxy)phenyl)amino)-5′,7′-dihydrospiro[pyrrolidine-3,6′-pyrrolo[2,3-d]pyrimidine]-2,5-dione]
23 | 6.62 | 0.0554 | O=C1CC2(Cc3cnc(Nc4ccc(OCCN5CCCC5)c(F)c4)nc3N2C2CCCC2)C(=O)N1 (stereo not drawn) [Compound C91, 7′-cyclopentyl-2′-((3-fluoro-4-(2-(pyrrolidin-1-yl)ethoxy)phenyl)amino)-5′,7′-dihydrospiro[pyrrolidine-3,6′-pyrrolo[2,3-d]pyrimidine]-2,5-dione]
24 | 7.34 | 0.0462 | CC(C)N1CC=C(c2ccc(Nc3ncc4c(n3)N(C3CCCC3)C3(CC(=O)NC3=O)C4)nc2)CC1 (stereo not drawn) [Compound C94, 7′-cyclopentyl-2′-((1′-isopropyl-1′,2′,3′,6′-tetrahydro-[3,4′-bipyridin]-6-yl)amino)-5′,7′-dihydrospiro[pyrrolidine-3,6′-pyrrolo[2,3-d]pyrimidine]-2,5-dione]
25 | 6.00 | 0.273 | O=C1NCCC12Cc1cnc(Nc3ccc(N4CCC(N5CCOCC5)CC4)cc3)nc1N2C1CCCC1 (stereo not drawn) [Compound C95, 7′-cyclopentyl-2′-((4-(4-morpholinopiperidin-1-yl)phenyl)amino)-5′,7′-dihydrospiro[pyrrolidine-3,6′-pyrrolo[2,3-d]pyrimidin]-2-one]
26 | 6.31 | 0.142 | O=C1NCCC12Cc1cnc(Nc3ccc(N4CCC(N5CCOCC5)CC4)nc3)nc1N2C1CCCC1 (stereo not drawn) [Compound C96, 7′-cyclopentyl-2′-((6-(4-morpholinopiperidin-1-yl)pyridin-3-yl)amino)-5′,7′-dihydrospiro[pyrrolidine-3,6′-pyrrolo[2,3-d]pyrimidin]-2-one]
27 | 6.54 | 0.0747 | O=C1NCCC12Cc1cnc(Nc3ccc(N4CCC(N5CCOCC5)CC4)c(F)c3)nc1N2C1CCCC1 (stereo not drawn) [Compound C97, 7′-cyclopentyl-2′-((3-fluoro-4-(4-morpholinopiperidin-1-yl)phenyl)amino)-5′,7′-dihydrospiro[pyrrolidine-3,6′-pyrrolo[2,3-d]pyrimidin]-2-one]
